Data from patent US20110040086A1, “Novel Beta-Lactam Antibiotics, Methods for Their Production, and Their Use” (DRITTE PATENTPORTFOLIO BETEILIGUNGSGESELLSCHAFT MB, priority 2007, published 2011).

Tests used:
[1] = tested on: Enterococcus faecalis 769; test: agar diffusion test (Test System II, multi-resistant germs); assay type: cell-based; design: key: r = resistant (no detectable zone of inhibition)
Method in brief: (§1)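 Disc diffusion on Müller-Hinton II agar; inoculum McFarland 0.5 in saline, streaked in three directions. Discs carry 10/50/100 μg compound (MeOH or water). 37 °C, 18-20 h; read-out: zone-of-inhibition diameter.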

[2] = tested on: Staphylococcus aureus 315; test: as above; assay type: cell-based; design: key: r = resistant (no detectable zone of inhibition)
Method in brief: as §1

[3] = tested on: Staphylococcus haemolyticus 535; test: as above; assay type: cell-based; design: key: r = resistant (no detectable zone of inhibition); details: quantity 0.09 μmol
Method in brief: as §1

S. aureus 33490 = test: as above; assay type: cell-based, Staphylococcus aureus; design: key: r = resistant (no detectable zone of inhibition); details: quantity 0.09 μmol
Method in brief: as §1

S. aureus 36881 = test: as above; assay type: cell-based, Staphylococcus aureus; design: key: r = resistant (no detectable zone of inhibition)
Method in brief: as §1

S. aureus 520 = test: as above; assay type: cell-based, Staphylococcus aureus; design: key: r = resistant (no detectable zone of inhibition)
Method in brief: as §1

S. aureus 38418 = test: as above; assay type: cell-based, Staphylococcus aureus
Method in brief: as §1

S. aureus ATCC 6538 = test: as above; assay type: cell-based, Staphylococcus aureus
Method in brief: as §1

S. epidermidis 847 = test: as above; assay type: cell-based, Staphylococcus epidermidis; design: key: r = resistant (no detectable zone of inhibition)
Method in brief: as §1

S. epidermidis 125 = test: as above; assay type: cell-based, Staphylococcus epidermidis
Method in brief: as §1

[4] = tested on: Staphylococcus aureus col.; test: as above; assay type: cell-based; details: quantity 0.09 μmol
Description: The test substances are deposited in stepped quantities (10 μg, 50 μg, 100 μg) onto active ingredient carriers (sensi-discs). For this purpose, the test substances are dissolved in methanol or A. dest. according to their solubility. Each inoculated plate is fitted with 3 test sheets.
Test System II (Effect Against Multi-Resistant Germs)
For this purpose, bacteria is cultivated on Müller-Hinton-Agar II plates.
With 1-1.5 ml physiological saline solution, a bacteria suspension of McFarland 0.5 (corresponds to a bacteria density of 150×10^6 germs) is produced. Then, with a sterile glass rod, a small drop of bacteria suspension is placed on the Müller-Hinton-Agar plate and coated in three layers (vertical, horizontal, and transverse). Thereafter, the sensi-discs with the novel semi-synthetic test substances are placed on top. The fitted plates are incubated for 18-20 hours at 37° C. After incubation, the diameters of the zones of inhibition are read as a measure for the antimicrobial activity of the novel semi-synthetic test substances.

[5] = tested on: S. aureus North Germany strain; test: as above; assay type: cell-based, Staphylococcus aureus; design: key: r = resistant (no detectable zone of inhibition)
Method in brief: as §1

[6] = tested on: Staphylococcus aureus ATCC 6538; test: mouse infected with Staphylococcus aureus infection model (survival); assay type: in vivo, BALB/c mice; details: 2 × 0.5 mg (25 mg/kg) i.p.
Description: Method for Effectiveness In Vivo with the Mouse Infected with Staphylococcus aureus Model
On Day 0, at least 3 BALB/c mice per test substance (Table 8) or controls are pretreated with cyclophosphamide (250 mg/kg) in 250 μl PBS inta peritoneal (i.p.).
On Day 2, the animals again received 100 mg/kg i.p.
On Day 2, a colony of the test germ is transferred from a growing agar plate (Müller-Hinton-Agar, Beckton Dickinson) into a flask with 10 ml CASO broth (CASO-B., Soyabean peptone-Casein peptone broth, SIFIN, 30 g/l) and is cultivated overnight at 37° C. and a shaking frequency of 250 rpm.
On Day 3, the pre-culture (Vk) is diluted 1:50 with CASO-B and further cultivated ca. 2 hours until an extinction in the medium of 0.6 at a wavelength of 550 nm is reached. Then, it is grown 1× with PBS at room temperature and set again to an extinction of 0.6.
At least 3 animals for a test substance or controls are infected with 10 μl/g body weight grown germs of a bacteria suspension with the extinction 0.6 (ca. 10^10-10^12 CFU, Colony forming units) i.p.
After 30 minutes, antibiotic solution is injected into the mice in a volume of 200 μl PBS with 3% DMSO i.p. 6 hours later, the second antibiotic injection is performed at the same concentration. […]

[7] = logP value by HPLC according to Donovan et al.; details: HPLC, methanol/0.1% phosphoric acid pH 2
Description: • Operating temperature 18-24° C. • Flow 1.5 mL/min • Linear gradient (methanol/0.1% phosphoric acid pH 2) from 10% to 100% methanol in 9.4 min, equilibrium time between 2 runs 6 min
ca. 0.5 mg of analyte is added to 0.5 ml of a standard solution (440 mg methyl phenyl sulfonate and 380 μl toluene in 150 mL methanol). 2 μl of this sample solution is injected.
Because the distribution coefficients of the two standards running in each test are known, the distribution coefficient of the analytes can be determined from the relationships of the analyte/standard retention times.

Compound: CC1(C)SC2C(NC(=O)C(NC3=C(C(=O)NCCO)C(=O)C=CC3=O)c3ccc(O)cc3)C(=O)N2C1C(=O)O (stereo not shown) [6-{2-[2-(2-hydroxyethylcarbamoyl)-3,6-dioxocyclohexa-1,4-dienylamino]-2-(4-hydroxyphenyl)-acetylamino-penicillanic acid]
- Diameter of zone of inhibition ([1]; quantity 0.09 μmol): 28 mm
- Diameter of zone of inhibition ([2]; quantity 0.09 μmol): r
- Diameter of zone of inhibition [3]: r
- Diameter of zone of inhibition (S. aureus 33490): 18 mm
- Diameter of zone of inhibition (S. aureus 36881; quantity 0.09 μmol): r^2
- Diameter of zone of inhibition (S. aureus 520; quantity 0.09 μmol): r
- Diameter of zone of inhibition (S. aureus 38418; quantity 0.09 μmol): 34 mm
- Diameter of zone of inhibition (S. aureus ATCC 6538; quantity 0.09 μmol): 44 mm
- Diameter of zone of inhibition (S. epidermidis 847; quantity 0.09 μmol): 24 mm
- Diameter of zone of inhibition (S. epidermidis 125; quantity 0.09 μmol): 28 mm
- Diameter of zone of inhibition [4]: 32 mm

Compound: O=C(O)C1=C(Cl)CC2C(=O)C(NC(=O)C(NC3=C(C(=O)NCCO)C(=O)C=CC3=O)c3ccccc3)C2N1 (stereo not shown) [1m, 3-chlorine-7-{2-[2-(2-hydroxyethylcarbamoyl)-3,6-dioxocyclohexa-1,4-dienylamino]-2-phenyl-acetylamino}-8-oxo-5-azabicyclo[4.2.0]oct-3-ene-4-carboxylic acid]
- Diameter of zone of inhibition ([1]; Quantity n 0.018): r
- Diameter of zone of inhibition ([1]; Quantity n 0.092): r
- Diameter of zone of inhibition ([1]; Quantity n 0.18): r
- Diameter of zone of inhibition ([2]; Quantity n 0.018): r
- Diameter of zone of inhibition ([2]; Quantity n 0.092): r
- Diameter of zone of inhibition ([2]; Quantity n 0.18): 8 mm
- Diameter of zone of inhibition (S. aureus 36881; Quantity n 0.018): r
- Diameter of zone of inhibition (S. aureus 36881; Quantity n 0.092): 16 mm
- Diameter of zone of inhibition (S. aureus 36881; Quantity n 0.18): 20 mm
- Diameter of zone of inhibition (S. aureus 520; Quantity n [mol] 0.018): r
- Diameter of zone of inhibition (S. aureus 520; Quantity n [mol] 0.092): r
- Diameter of zone of inhibition (S. aureus 520; Quantity n [mol] 0.18): 8 mm
- Diameter of zone of inhibition ([5]; Quantity n 0.018): r
- Diameter of zone of inhibition ([5]; Quantity n 0.092): r
- Diameter of zone of inhibition ([5]; Quantity n 0.18): 12 mm
- Diameter of zone of inhibition (S. aureus 38418; Quantity n [mol] 0.018): 20 mm
- Diameter of zone of inhibition (S. aureus 38418; Quantity n [mol] 0.092): 30 mm
- Diameter of zone of inhibition (S. aureus 38418; Quantity n [mol] 0.18): >30 mm
- Diameter of zone of inhibition (S. aureus ATCC 6538; Quantity n 0.018): 22 mm
- Diameter of zone of inhibition (S. aureus ATCC 6538; Quantity n 0.092): >30 mm
- Diameter of zone of inhibition (S. aureus ATCC 6538; Quantity n 0.18): >30 mm
- Diameter of zone of inhibition (S. epidermidis 847; Quantity n [mol] 0.018): r
- Diameter of zone of inhibition (S. epidermidis 847; Quantity n [mol] 0.092): 14 mm
- Diameter of zone of inhibition (S. epidermidis 847; Quantity n [mol] 0.18): 18 mm
- Diameter of zone of inhibition (S. epidermidis 125; Quantity n 0.018): 20 mm
- Diameter of zone of inhibition (S. epidermidis 125; Quantity n 0.092): 26 mm
- Diameter of zone of inhibition (S. epidermidis 125; Quantity n 0.18): 28 mm
- Survival/tested mice n/n [6]: 9/9
- logP value [7]: 1.62
